The target in one test is T1, Human CD73 (Homo sapiens, UniProt P21589).
T1 construct: purchased R&D Systems; host or cells: CHO cells
T1 sequence (P21589 27-549): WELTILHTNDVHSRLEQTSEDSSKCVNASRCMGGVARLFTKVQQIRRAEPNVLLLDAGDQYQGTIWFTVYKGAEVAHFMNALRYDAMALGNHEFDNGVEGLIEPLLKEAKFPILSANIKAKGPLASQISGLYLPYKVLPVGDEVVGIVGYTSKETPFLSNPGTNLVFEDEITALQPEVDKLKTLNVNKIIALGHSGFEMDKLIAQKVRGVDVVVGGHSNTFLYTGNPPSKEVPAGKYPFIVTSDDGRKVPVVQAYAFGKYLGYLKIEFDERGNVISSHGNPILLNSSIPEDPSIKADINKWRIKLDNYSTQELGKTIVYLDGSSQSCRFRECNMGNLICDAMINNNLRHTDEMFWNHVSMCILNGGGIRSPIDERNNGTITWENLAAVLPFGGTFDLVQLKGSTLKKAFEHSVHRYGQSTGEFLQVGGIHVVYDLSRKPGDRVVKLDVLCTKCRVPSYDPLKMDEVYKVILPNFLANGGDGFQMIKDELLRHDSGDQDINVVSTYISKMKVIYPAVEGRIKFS
Description: CD73 Enzyme Assay. It is filed as biochemical. The settings on record: 0.25 nM hCD73, 25 μM AMP, kinetic read at 360 nm; read-out: CD73 Enzyme Assay IC50.

The target of test [1] is T2, CD73 on U138 human neuroglioma cells (Homo sapiens, UniProt P21589).
T2 construct: U138 cells were obtained from ATCC and cultured in DMEM with 10% FBS; host or cells: U138 human neuroglioma cells
T2 sequence (P21589 27-549): T1 sequence (P21589 27-549)
Briefly: CD73 Cell-Based Assay. The settings on record: U138 cells, AMP substrate, 2 hours at 37° C., inorganic phosphate by malachite green. The procedure: U138 human neuroglioma cells were used in these experiments. U138 cells were obtained from ATCC and cultured in DMEM with 10% FBS. 2500 cells were seeded into 96-well plate with 100 μL of media the day before the experiment. Cells were washed twice with 200 μL of assay buffer (20 mM HEPES, pH 7.4; 137 mM NaCl; 5.4 mM KCl; 1.3 mM CaCl2); 4.2 mM NaHCO3; 1 mg/mL glucose) to remove residual inorganic phosphate. After washing, 100 μL of buffer was added to each well, then 100 μL of a mixture of AMP substrate (200 μM) and diluted compound was added to each well. The cells were incubated at 37° C. (with 5% CO2) for 2 hours. 50 μL of supernatant was transferred to a 96-well assay plate and the concentration of inorganic phosphate was determined using malachite green reagent (R&D System; Cat: DY996).

As for `C[C@H](Nc1nc(Cl)nc2c1ccn2[C@@H]1O[C@H](COCP(=O)(O)O)[C@@H](O)[C@H]1O)c1ccccc1F` [Compound 79, [(2R,3S,4R,5R)-5-[2-chloro-4-[[(1S)-1-(2-fluorophenyl)ethyl]-amino]pyrrolo[2,3-d]-pyrimidin-7-yl]-3,4-dihydroxy-tetrahydro-furan-2-yl]methoxy-methylphosphonic acid], the IC50 on Human CD73 is < 0.01 µM; in test [1], 0.01 to 0.1 µM.
For `C[C@H](Nc1nc(C#N)nc2c1ccn2[C@@H]1O[C@H](COCP(=O)(O)O)[C@@H](O)[C@H]1O)c1ccccc1F` [Compound 80, [(2R,3S,4R,5R)-5-[2-cyano-4-[[(1S)-1-(2-fluorophenyl)ethyl]-amino]pyrrolo[2,3-d]-pyrimidin-7-yl]-3,4-dihydroxy-tetrahydro-furan-2-yl]methoxy-methylphosphonic acid] the same measures were < 0.01 µM and < 0.01 µM.
For `C[C@@H](Nc1nc(C#N)nc2c1ccn2[C@@H]1O[C@H](COCP(=O)(O)O)[C@@H](O)[C@H]1O)c1cccc(F)c1` [Compound 81, [(2R,3S,4R,5R)-5-[2-cyano-4-[[(1R)-1-(3-fluorophenyl)ethyl]-amino]pyrrolo[2,3-d]-pyrimidin-7-yl]-3,4-dihydroxy-tetrahydro-furan-2-yl]methoxy-methylphosphonic acid], the IC50 (at Human CD73; in test [1]) was < 0.01 µM each time.
In the case of `C[C@@H](Nc1nc(Cl)nc2c1ccn2[C@@H]1O[C@H](COCP(=O)(O)O)[C@@H](O)[C@H]1O)c1cccc(F)c1` [Compound 82, [(2R,3S,4R,5R)-5-[2-chloro-4-[[(1R)-1-(3-fluorophenyl)ethyl]-amino]pyrrolo[2,3-d]-pyrimidin-7-yl]-3,4-dihydroxy-tetrahydro-furan-2-yl]methoxy-methylphosphonic acid], the half-maximal inhibitory concentration (IC50) on Human CD73 is 0.01 to 0.1 µM; in test [1], < 0.01 µM.
For `O=P(O)(O)COC[C@H]1O[C@@H](n2ccc3c(NC4CC(F)(F)C4)nc(Cl)nc32)[C@H](O)[C@@H]1O` [Compound 83, [(2R,3S,4R,5R)-5-[2-chloro-4-[(3,3-difluoro-cyclobutyl)amino]-pyrrolo[2,3-d]-pyrimidin-7-yl]-3,4-dihydroxy-tetrahydro-furan-2-yl]methoxy-methylphosphonic acid] the same measures were < 0.01 µM and < 0.01 µM.
On the same counts, the results for `CC[C@H](Nc1nc(Cl)nc2c1ccn2[C@@H]1O[C@H](COCP(=O)(O)O)[C@@H](O)[C@H]1O)c1ccccc1` [Compound 84, [(2R,3S,4R,5R)-5-[2-chloro-4-[[(1S)-1-phenylpropyl]amino]-pyrrolo[2,3-d]-pyrimidin-7-yl]-3,4-dihydroxy-tetrahydro-furan-2-yl]methoxy-methylphosphonic acid] are < 0.01 µM and < 0.01 µM.
For `CC(C)[C@H](Nc1nc(Cl)nc2c1ccn2[C@@H]1O[C@H](COCP(=O)(O)O)[C@@H](O)[C@H]1O)c1ccccc1` [Compound 85, [(2R,3S,4R,5R)-5-[2-chloro-4-[[(1S)-2-methyl-1-phenyl-propyl]amino]pyrrolo-[2,3-d]pyrimidin-7-yl]-3,4-dihydroxy-tetrahydrofuran-2-yl]methoxymethyl-phosphonic acid] the same measures were < 0.01 µM and < 0.01 µM.
Regarding `Nc1nc(Cl)nc2c1ccn2[C@@H]1O[C@H](COCP(=O)(O)O)[C@@H](O)[C@H]1O` [Compound 86, [(2R,3S,4R,5R)-5-(4-amino-2-chloro-pyrrolo[2,3-d]-pyrimidin-7-yl)-3,4-dihydroxy-tetrahydro-furan-2-yl]methoxy-methylphosphonic acid], the IC50 (at Human CD73; in test [1]) was 0.1 to 1 µM in each case.
As for `C[C@@H](Nc1nc(Cl)nc2c1ccn2[C@@H]1O[C@H](COCP(=O)(O)O)[C@@H](O)[C@H]1O)c1ccccc1F` [Compound 87, [(2R,3S,4R,5R)-5-[2-chloro-4-[[(1R)-1-(2-fluorophenyl)ethyl]-amino]pyrrolo[2,3-d]-pyrimidin-7-yl]-3,4-dihydroxy-tetrahydro-furan-2-yl]methoxy-methylphosphonic acid], the IC50 (on Human CD73; in test [1]) was < 0.01 µM throughout.
`C[C@@H](Nc1nc(C#N)nc2c1ccn2[C@@H]1O[C@H](COCP(=O)(O)O)[C@@H](O)[C@H]1O)c1ccccc1F` [Compound 88, [(2R,3S,4R,5R)-5-[2-cyano-4-[[(1R)-1-(2-fluorophenyl)ethyl]-amino]pyrrolo[2,3-d]-pyrimidin-7-yl]-3,4-dihydroxy-tetrahydro-furan-2-yl]methoxy-methylphosphonic acid]: the IC50 (on Human CD73; in test [1]) was < 0.01 µM each time.
Regarding `C[C@@H](Nc1nc(Cl)nc2c1ccn2[C@@H]1O[C@H](COCP(=O)(O)O)[C@@H](O)[C@H]1O)c1ccc(C#N)cc1` [Compound 89, [(2R,3S,4R,5R)-5-[2-chloro-4-[[(1R)-1-(4-cyanophenyl)ethyl]-amino]pyrrolo[2,3-d]-pyrimidin-7-yl]-3,4-dihydroxy-tetrahydro-furan-2-yl]methoxy-methylphosphonic acid], the half-inhibitory concentration (IC50) (at Human CD73; in test [1]) was < 0.01 µM throughout.
Regarding `Cc1ccc([C@H](C)Nc2nc(Cl)nc3c2ccn3[C@@H]2O[C@H](COCP(=O)(O)O)[C@@H](O)[C@H]2O)cc1` [Compound 90, [(2R,3S,4R,5R)-5-[2-chloro-4-[[(1S)-1-(p-tolyl)ethyl]amino]-pyrrolo[2,3-d]-pyrimidin-7-yl]-3,4-dihydroxy-tetrahydro-furan-2-yl]methoxy-methylphosphonic acid], the 50% inhibitory concentration (IC50) (at Human CD73; in test [1]) was < 0.01 µM in each case.
Turning to `Cc1ccc([C@H](C)Nc2nc(C#N)nc3c2ccn3[C@@H]2O[C@H](COCP(=O)(O)O)[C@@H](O)[C@H]2O)cc1` [Compound 91, [(2R,3S,4R,5R)-5-[2-cyano-4-[[(1S)-1-(p-tolyl)ethyl]amino]-pyrrolo[2,3-d]-pyrimidin-7-yl]-3,4-dihydroxy-tetrahydro-furan-2-yl]methoxy-methylphosphonic acid], the IC50 (at Human CD73; in test [1]) was < 0.01 µM throughout.
On to `CC(C)Nc1nc(Cl)nc2c1ccn2[C@@H]1O[C@H](COCP(=O)(O)O)[C@@H](O)[C@H]1O` [Compound 92, [(2R,3S,4R,5R)-5-[2-chloro-4-(isopropyl-amino)pyrrolo[2,3-d]-pyrimidin-7-yl]-3,4-dihydroxy-tetrahydro-furan-2-yl]methoxy-methylphosphonic acid], for which the IC50 (at Human CD73; in test [1]) was < 0.01 µM throughout.
With `CN(C)c1nc(Cl)nc2c1ccn2[C@@H]1O[C@H](COCP(=O)(O)O)[C@@H](O)[C@H]1O` [Compound 93, [(2R,3S,4R,5R)-5-[2-chloro-4-(dimethyl-amino)pyrrolo[2,3-d]-pyrimidin-7-yl]-3,4-dihydroxy-tetrahydro-furan-2-yl]methoxy-methylphosphonic acid], the IC50 on Human CD73 was < 0.01 µM; in test [1], 0.01 to 0.1 µM.
Take `C[C@@H](Nc1nc(Cl)nc2c1ccn2[C@@H]1O[C@H](COCP(=O)(O)O)[C@@H](O)[C@H]1O)c1ccc(Cl)cc1` [Compound 94, [(2R,3S,4R,5R)-5-[2-chloro-4-[[(1R)-1-(4-chlorophenyl)ethyl]-amino]pyrrolo[2,3-d]-pyrimidin-7-yl]-3,4-dihydroxy-tetrahydro-furan-2-yl]methoxy-methylphosphonic acid]: the concentration for half-maximal inhibition (IC50) (at Human CD73; in test [1]) was < 0.01 µM each time.
On to `C[C@@H](Nc1nc(C#N)nc2c1ccn2[C@@H]1O[C@H](COCP(=O)(O)O)[C@@H](O)[C@H]1O)c1ccc(C#N)cc1` [Compound 95, [(2R,3S,4R,5R)-5-[2-cyano-4-[[(1R)-1-(4-cyanophenyl)ethyl]-amino]pyrrolo[2,3-d]-pyrimidin-7-yl]-3,4-dihydroxy-tetrahydro-furan-2-yl]methoxy-methylphosphonic acid], for which the IC50 (at Human CD73; in test [1]) was 0.01 to 0.1 µM in each case.
Consider `CNc1nc(Cl)nc2c1ccn2[C@@H]1O[C@H](COCP(=O)(O)O)[C@@H](O)[C@H]1O` [Compound 96, [(2R,3S,4R,5R)-5-[2-chloro-4-(methyl-amino)pyrrolo[2,3-d]-pyrimidin-7-yl]-3,4-dihydroxy-tetrahydro-furan-2-yl]methoxy-methylphosphonic acid], for which the IC50 (on Human CD73; in test [1]) was 0.1 to 1 µM in each case.
On to `CC(C)Nc1nc(C#N)nc2c1ccn2[C@@H]1O[C@H](COCP(=O)(O)O)[C@@H](O)[C@H]1O` [Compound 97, [(2R,3S,4R,5R)-5-[2-cyano-4-(isopropyl-amino)pyrrolo[2,3-d]-pyrimidin-7-yl]-3,4-dihydroxy-tetrahydro-furan-2-yl]methoxy-methylphosphonic acid], for which the IC50 at Human CD73 is 0.01 to 0.1 µM; in test [1], < 0.01 µM.

The values above are taken from patent US11591355B2 (Peloton Therapeutics, Inc., priority 2017, dated 2023).
